Consider 79 molecules from the RepoRT retention time repository (doi:10.1016/j.scitotenv.2015.08.078).

The nature of the data set: RP, Waters ACQUITY UPLC BEH C18, 100 × 2.1 mm, 1.7 µm, 0.3 mL/min, estimated dead time 0.73 min; A: water + 0.1% formic acid, pH 3; B: methanol + 0.1% formic acid, pH 3; gradient (min/%B) 0/10 14/90 16/90 18/10. The settings on record: stereoisomer not certain.
Consider `COC(=O)C(C)Oc1ccc(Oc2cnc3cc(Cl)ccc3n2)cc1` (centres undefined) [Quizalofop methyl], for which the LC retention time is 12.1 min.
Regarding `CNC(=N[N+](=O)[O-])NCc1cnc(Cl)s1` [Clothianidin], the LC retention time was 4.13 min.
Then `O=C(NC(=O)c1c(F)cccc1F)Nc1cc(Cl)c(OC(F)(F)C(F)C(F)(F)F)cc1Cl` (centres undefined) [Lufenuron], with 9.67 min; and `COC(=O)c1ccccc1S(=O)(=O)NC(=O)Nc1nc(OC(F)F)cc(OC(F)F)n1` [Primisulfuron-methyl], with 8.86 min; and `CNC(=O)Oc1cc(C)c(S(C)(=O)=O)c(C)c1` [Methiocarb sulfone], with 4.46 min.
Then `CCOP(=S)(OCC)Oc1nc(Cl)c(Cl)cc1Cl` [Chloropyrifos], with 14.1 min; and `COc1nn(CSP(=S)(OC)OC)c(=O)s1` [Methidathion], with 9.91 min; and `CCS(=O)CCSP(=O)(OC)OC` (centres undefined) [Oxydemeton-methyl], with 3.15 min.
Then `Cc1ccnc(NS(=O)(=O)c2ccc(N)cc2)n1` [Sulfamerazine], with 2.75 min; and `CC(C)(C)NCC(O)c1cc(Cl)c(N)c(C(F)(F)F)c1` (centres undefined) [Mabuterol], with 6.05 min.
As to `CCOP(=S)(OCC)SCn1nnc2ccccc2c1=O` [Azinphos-ethyl], the LC retention time was 10.8 min.
Then `COc1cnc(NS(=O)(=O)c2ccc(N)cc2)nc1` [Sulfameter], with 3.2 min; and `CC1(C(=O)Nc2ccc(O)c(Cl)c2Cl)CCCCC1` [Fenhexamid], with 11.5 min.
In the case of `CC1CCCC(=O)CCCC=Cc2cc(O)cc(O)c2C(=O)O1` (centres undefined) [Zearalenone] it was 10.5 min.
`CN(C)S(=O)(=O)N(SC(F)(Cl)Cl)c1ccccc1` [Dichlofluanid]: the LC retention time was 10.8 min.
On to `CCNc1nc(N)nc(Cl)n1` [Desisopropylatrazine], for which the LC retention time was 4.38 min.
In the case of `CCOP(=S)(OCC)SCS(=O)(=O)CC` [Phorate sulfone] it was 8.76 min; in that of `COc1ccnc(CS(=O)c2nc3ccc(OC(F)F)cc3[nH]2)c1OC` (centres undefined) [Pantoprazol], 7.67 min; in that of `CCOP(=S)(OCC)SCn1c(=O)oc2cc(Cl)ccc21` [Phosalone], 12 min.
Then `CC(C)=CC1C(C(=O)OCc2coc(Cc3ccccc3)c2)C1(C)C` (centres undefined) [Bioresmethrin], with 14.2 min; and `CC1CCc2cc(F)cc3c(=O)c(C(=O)O)cn1c23` (centres undefined) [Flumequine], with 7.49 min; and `COc1ncnc(NS(=O)(=O)c2ccc(N)cc2)c1OC` [Sulfadoxine], with 5 min.
Then `Cc1cc(C)nc(NS(=O)(=O)c2ccc(N)cc2)n1` [Sulfamethazine], with 3.59 min; and `CCOc1ccc(NC(=O)OC(C)C)cc1OCC` [Diethofencarb], with 9.88 min.
For `CCN(CC)C(=O)N1CCN(C)CC1` [Diethylcarbamazine], the LC retention time is 2.52 min.
Then `CCn1cc(C(=O)O)c(=O)c2cc(F)c(N3CCN(C)CC3)cc21` [Pefloxacin], with 4.09 min; and `COP(=S)(OC)Oc1ccc(SC)c(C)c1` [Fenthion], with 11.7 min; and `CCCCC(CC)COC(=O)c1ccccc1C(=O)OCC(CC)CCCC` (centres undefined) [Bis-(2-ethylhexyl) phthalate], with 15.3 min.
Consider `O=C(O)COC(=O)Cc1ccccc1Nc1c(Cl)cccc1Cl` [Aceclofenac], for which the LC retention time was 10.3 min.
In the case of `Cc1cc(NS(=O)(=O)c2ccc(N)cc2)no1` [Sulfamethoxazole] it was 3.91 min; in that of `CCCCCC(C)OC(=O)COc1ccc(Cl)c2cccnc12` (centres undefined) [Cloquintocet - mexyl], 13 min.
In the case of `CCCC1CC(C(=O)NC(C(C)Cl)C2OC(SC)C(O)C(O)C2O)N(C)C1` (centres undefined) [Clindamycin] it was 7.04 min.
Turning to `COc1cc2c(c3oc(=O)c4c(c13)CCC4=O)C1C=COC1O2` (centres undefined) [Aflatoxin B1], the LC retention time was 7.97 min.
Then `CCOP(=S)(NC(C)C)Oc1ccccc1C(=O)OC(C)C` (centres undefined) [Isofenphos], with 12.1 min; and `OC(c1ccc(Cl)cc1)(c1cncnc1)c1ccccc1Cl` (centres undefined) [Fenarimol], with 11.6 min; and `CC(CN1c2ccccc2Sc2ccccc21)N(C)C` (centres undefined) [Promethazine], with 9.06 min.
As to `Clc1cccc(N2CCNCC2)c1` [mCCP], the LC retention time is 5.23 min.
For `CC(C)NCC(O)COc1cccc2[nH]c3ccccc3c12` (centres undefined) [Carazolol], the LC retention time is 6.24 min.
Then `CNC(=O)Oc1cccc2ccccc12` [Carbaryl], with 7.91 min; and `O=C(O)c1ccccc1O` [Salicylic acid], with 4.4 min.
Then `CC(C)(C)N(NC(=O)c1ccc(Cl)cc1)C(=O)c1ccccc1` [Halofenozide], with 9.91 min.
In the case of `O=C(CCCN1CCN(c2ccccn2)CC1)c1ccc(F)cc1` [Azaperone] it was 5.63 min.
With `CN(Cc1cc(Br)cc(Br)c1N)C1CCCCC1` [Bromhexine], the LC retention time was 14.1 min.
In the case of `Nc1ccc(S(=O)(=O)Nc2ccccn2)cc1` [Sulfapyridine] it was 2.55 min.
Then `CSc1nnc(C(C)(C)C)c(=O)n1N` [Metribuzin], with 7.06 min; and `CC(CCc1ccc(O)cc1)NCC(O)c1ccc(O)cc1` (centres undefined) [Ractopamine], with 4.5 min; and `CC1CN(C2CCCCCCCCCCC2)CC(C)O1` (centres undefined) [Dodemorph], with 13.4 min.
In the case of `Nc1ccc(S(=O)(=O)c2ccc(N)cc2)cc1` [Dapsone] it was 3.17 min.
For the molecule `CCC(=C(CC)c1ccc(O)cc1)c1ccc(O)cc1` [Diethylstilbestrol], the LC retention time is 10.9 min.
Turning to `O=C(O)c1cn(C2CC2)c2cc(N3CCNCC3)c(F)cc2c1=O` [Ciprofloxacin], the LC retention time was 3.93 min.
`CN1CCC23c4c5ccc(O)c4OC2C(O)C=CC3C1C5` (centres undefined) [Morphine]: the LC retention time is 2.86 min.
Regarding `Cc1ncc([N+](=O)[O-])n1C` [Dimetridazole], the LC retention time is 2.68 min.
In the case of `Nc1ccc(S(=O)(=O)Nc2nccs2)cc1` [Sulfathiazole] it was 2.26 min; in that of `Cc1ccc(C(=CCN2CCCC2)c2ccccn2)cc1` [Triprolidine], 7.64 min.
Then `CC(C)(C)C(O)C(Oc1ccc(Cl)cc1)n1cncn1` (centres undefined) [Triadimenol], with 11.3 min.
In the case of `CC(=O)Nc1ccc(S(=O)(=O)Nc2ccc([N+](=O)[O-])cc2)cc1` [Sulfanitran] it was 7.27 min; in that of `N#Cc1c[nH]cc1-c1cccc2c1OC(F)(F)O2` [Fludioxonil], 10.1 min; in that of `CCNc1nc(NCC)nc(SC)n1` [Simetryn], 8.78 min.
As for `Cc1nn(C)c(Oc2ccccc2)c1C=NOCc1ccc(C(=O)OC(C)(C)C)cc1` [Fenpyroximate], the LC retention time was 13.7 min.
Then `OC(c1ccc(F)cc1)(c1cncnc1)c1ccccc1Cl` (centres undefined) [Nuarimol (Trimidal)], with 10 min; and `COc1nc(C)nc(NC(=O)NS(=O)(=O)c2ccccc2Cl)n1` [Chlorsulfuron], with 7.94 min; and `CC1(C)CN=C(NN=C(C=Cc2ccc(C(F)(F)F)cc2)C=Cc2ccc(C(F)(F)F)cc2)NC1` [Hydramethylnon], with 12.8 min.
As to `COC(=O)NC(=S)Nc1ccccc1NC(=S)NC(=O)OC` [Thiophanate-methyl], the LC retention time is 7.2 min.
In the case of `c1ccc(Nc2ccccc2)cc1` [Diphenylamine] it was 10.5 min; in that of `CC1c2cccc(O)c2C(O)=C2C(=O)C3(O)C(O)=C(C(N)=O)C(=O)C(N(C)C)C3C(O)C21` (centres undefined) [Doxycycline], 7.42 min.
Then `COc1ccc(NC(=O)N(C)C)cc1Cl` [Metoxuron], with 6.3 min; and `CCOC(=O)CCN(Cc1ccccc1)SN(C)C(=O)ON=C(C)SC` [Alanycarb], with 11.6 min; and `CCOC(=O)c1ccccc1C(=O)OCC` [Diethyl phthalate], with 9.3 min.
In the case of `CNC(=O)Oc1cccc(N=CN(C)C)c1` [Formetanate] it was 2.06 min; in that of `CCS(=O)(=O)c1nc2ccccn2c1S(=O)(=O)NC(=O)Nc1nc(OC)cc(OC)n1` [Sulfosulfuron], 6.42 min.
Regarding `C=CC1(C)CC(OC(=O)CSCCN(CC)CC)C2(C)C(C)CCC3(CCC(=O)C32)C(C)C1O` (centres undefined) [Tiamulin], the LC retention time was 9.22 min.
In the case of `COC(=O)c1ccccc1S(=O)(=O)NC(=O)N(C)c1nc(C)nc(OC)n1` [Tribenuron methyl] it was 7.52 min; in that of `CN(C)C(=O)Nc1cccc(C(F)(F)F)c1` [Fluomethuron], 8.25 min; in that of `CCC1OC(=O)CC(O)C(C)C(OC2OC(C)C(O)C(N(C)C)C2O)C(CCN2CC(C)CC(C)C2)CC(C)C(=O)C=CC(C)=CC1COC1OC(C)C(O)C(OC)C1OC` (centres undefined) [Tilmicosin], 8.78 min.
In the case of `C=CCOC(Cn1ccnc1)c1ccc(Cl)cc1Cl` (centres undefined) [Imazalil] it was 9.14 min; in that of `C=CC=CCC1=C(C)C(OC(=O)C2C(C=C(C)C)C2(C)C)CC1=O` (centres undefined) [Pyrethrin I], 13.7 min.
In the case of `CCCCOC(=O)C(C)Oc1ccc(Oc2ccc(C(F)(F)F)cn2)cc1` (centres undefined) [Fluaziflop-P-butyl] it was 13.1 min; in that of `C=C(C)C1(O)OC(=O)C=C1OC` (centres undefined) [Penicillic acid], 3.78 min; in that of `COC(=O)C1C(OC(=O)c2ccccc2)CC2CCC1N2C` (centres undefined) [Cocaine], 5.49 min.
